How the values were obtained:
PARP = assay: Western blot of PARP cleavage in Cal51 cells; assay type: cell-based
Description: (§1) FIG. 3. Effect of 2-MeOE2bisMATE on caspase 8 and caspase 3 activation and PARP cleavage in Cal51 cells. Western blots showing caspase 8 and caspase 3 unprocessed and active fragments and PARP uncleaved and cleaved products following treatment of Cal51 cells with solvent, 0.05, 0.5 or 5 μM 2-MeOE2bisMATE for 48 hours.
(§2) FIG. 5. Effect of 2-MeOE2bisMATE on the timing of caspase 3 and caspase 8 activation and PARP cleavage in Cal51 cells. Western blots showing caspase 3, caspase 8 and PARP unprocessed and cleaved products at 0, 8, 16, 24 and 48 hrs following treatment of Cal51 cells with 5 μM 2-MeOE2bisMATE for 48 hrs or untreated for 48 hrs (48NT).
(§3) To determine whether caspases might play a role in cell death induced by 2-MeOE2bisMATE and other sulfamoylated oestrogen derivatives, we examined the expression of caspase 3, caspase 8 and PARP by immunoblotting (FIG. 3). […]
(§4) There are two major pathways of apoptosis; cell surface death receptors activate caspases directly via activation of caspase 8 whereas other apoptotic stimuli operate via triggering the release of cytochrome c from mitochondria which subsequently activates caspases. […] Caspase 3 activation was first detected at 16 hours and as expected was followed by PARP cleavage at 24 hours (FIG. 5). Caspase 8 activation was a relatively late event, first detected at 48 hours. […]

DR5 protein = assay: Western blot of DR5 protein levels in Cal51 cells; assay type: cell-based; conditions: 48 hours, 0.05, 0.5 and 5 μM
Description: FIG. 6. […] Western blot showing DR5 protein levels following treatment of Cal51 cells for 48 hours with 0, 0.05, 0.5 and 5 μM of 2-MeOEMATE or 2-EtEMATE. PCNA levels represent corresponding loading controls.
Protein lysates were prepared from CAL51 cells treated with various compounds and analysed for expression of DR5 by immunoblotting (FIG. 6).

caspase 8 = assay: Western blot of caspase 8 activation in Cal51 cells; assay type: cell-based
Description: as §1, §2, §3, §4

caspase 3 = assay: Western blot of caspase 3 activation in Cal51 cells; assay type: cell-based
Description: as §1, §2
FIG. 7. Effect of combined treatment of 2-EtEMATE or 2-MeOEMATE and TRAIL on caspase 3 activation in Cal51 cells. Western blots showing caspase 3 activation following treatment of Cal51 cells for 48 hours with solvent, 250 ng/ml TRAIL and 5 μM 2-EtEMATE or 2-MeOEMATE in the presence or absence of 250 ng/ml TRAIL. PCNA levels represent corresponding loading controls. 1, control; 2, THF solvent; 3, TRAIL; 4, 2-EtEMATE; 5,2-EtEMATE+TRAIL; 6, control; 7, THF solvent; 8, TRAIL; 9, 2-MeOEMATE; 10, 2-MeOEMATE+TRAIL
To determine whether caspases might play a role in cell death induced by 2-MeOE2bisMATE and other sulfamoylated oestrogen derivatives, we examined the expression of caspase 3, caspase 8 and PARP by immunoblotting (FIG. 3). […] Therefore, cell death induced by the 2-MeOE2bisMATE in Cal51 cells is associated with caspase activation.
There are two major pathways of apoptosis; cell surface death receptors activate caspases directly via activation of caspase 8 whereas other apoptotic stimuli operate via triggering the release of cytochrome c from mitochondria which subsequently activates caspases. Both pathways ultimately result in activation of caspase 3 and PARP cleavage. Since activation of caspase 8 is an indicator for the direct involvement of death receptors, it is important to determine whether activation of caspase 8 by 2-MeOE2bisMATE precedes or follows caspase 3 activation. We therefore performed time course experiments in Cal51 cells treated with 2-MeOE2bisMATE to order the activation events. Caspase 3 activation was first detected at 16 hours and as expected was followed by PARP cleavage at 24 hours (FIG. 5). Caspase 8 activation was a relatively late event, first detected at 48 hours. Therefore activation of caspase 3 induced by 2-MeOE2bisMATE precedes activation of caspase 8.
To further explore the mechanism for co-operation between sulfamoylated oestrones and TRAIL, we analysed activation of caspase 3 (FIG. 7). […] Therefore, sulfamoylated oestrones and TRAIL cooperate to activate caspase 3.

CAL51 cells = assay: TUNEL assay of apoptosis in Cal51 cells with or without caspase inhibitor ZVAD-fmk; assay type: cell-based; conditions: 5 μM 2-MeOE2bisMATE with 50 μM zVAD-fmk, 3 days
Description: FIG. 4. Effect of the caspase inhibitor ZVAD-fmk on 2-MeOE2bisMATE induced apoptosis in Cal51 cells. TUNEL assay showing % apoptosis of cells untreated or following treatment with 50 μM ZVAD-fmk, 5 μM 2-MeOE2bisMATE or 5 μM 2-MeOE2bisMATE and 50 μM zVAD-fmk for 3 days. Histograms are overlays for control cells stained in the absence of TdT enzyme (bold) or cells stained with TUNEL reaction mix (open).
To determine whether the activation of caspases was important for cell killing, we tested whether a broad range chemical caspase inhibitor interfered with apoptosis. Cells were treated with 2-MeOE2bisMATE in the presence and absence of the caspase inhibitor ZVAD-fmk and cell death was analysed using the TUNEL assay which measures the DNA cleavage associated with apoptosis. The induction of TUNEL positive cells by 2-MeOE2bisMATE was reduced by 60% in the presence of zVAD-fmk (FIG. 4). Therefore 2-MeOE2bisMATE requires activation of caspases for optimal induction of apoptosis.

[1] = in vivo; cited from earlier work
[2] = Cal51 cells, 5 μM, time course 0-48 hrs
[3] = Cal51 cells, 0.05, 0.5 or 5 μM, 48 hours

SMILES | time of PARP cleavage (PARP; [2]) | PARP cleavage (PARP; [3]) | DR5 protein levels by western blot (DR5 protein) | time at which caspase 8 activation was first detected (caspase 8; [2]) | activation of caspase 8 (caspase 8; [3]) | time at which caspase 3 activation was first detected (caspase 3; [2]) | activation of caspase 3 (caspase 3; [3]) | activation of caspase 3, synergistic effect with TRAIL (caspase 3; in combination with TRAIL) | reduction of induction of TUNEL positive cells in the presence of zVAD-fmk (CAL51 cells) | half-life in blood [1]
COc1cc2c(cc1OS(N)(=O)=O)CCC1C2CCC2(C)C(OS(N)(=O)=O)CCC12 (stereo not shown) [2-MeOE2bisMATE, 2-methoxyoestrone-3-O,17-bissulphamate] | 24 h | Cleavage of PARP | no significant change | 48 h | dose dependent activation | 16 h | dose dependent activation | increased activation of caspase 3 | 60% | –
C[C@]12CC[C@@H]3c4ccc(OS(=O)(=O)O)cc4CC[C@H]3[C@@H]1CCC2=O [E1S, oestrone sulphate] | – | – | – | – | – | – | – | – | – | 10 to 12 h

Source: patent US7211246B2, “Compositions comprising oestrone-3-0-sulphamate and trail (TNF-related apoptosis inducing ligand)” (Sterix Limited, priority 2001, dated 2007)
